Results as given in patent US11034675B2, “Solid forms of Selinexor and process for their preparation” (DR. REDDY'S LABORATORIES LIMITED, priority 2016, dated 2021).

Legend:
[1] = stability of amorphous form under mechanical stress (grinding, milling); type: physicochemical; conditions: mechanical stress such as grinding and milling
Excerpt: (§1) The present application provides a stable amorphous form of Selinexor suitable for powder handling and downstream processes. […] In an embodiment, the present application provides a stable amorphous form of Selinexor with less than 5% of crystallinity, preferably with less than 1% crystallinity and more preferably devoid of crystallinity as per X-ray diffraction analysis.

[2] = stability of amorphous form under hygroscopic conditions (higher relative humidity); type: physicochemical; conditions: higher relative humidity conditions of more than 60% RH
Excerpt: as §1

stability under mechanical stress [1]: highly stable | stability under hygroscopic conditions [2]: stable
Compound: O=C(/C=C\n1cnc(-c2cc(C(F)(F)F)cc(C(F)(F)F)c2)n1)NNc1cnccn1 [Amorphous form of Selinexor, (Z)-3-(3-(3,5-bis(trifluoromethyl)phenyl)-IH—I,2,4-triazol-1-yl)-N′-(pyrazin-2yl) acrylohydrazide]
